Measured values taken from publication PMC10101059, “Rational Design of Stapled Antimicrobial Peptides to Enhance Stability and In Vivo Potency against Polymicrobial Sepsis” (Microbiology Spectrum, 2023).
Converted amounts (≈) assume the structure as drawn. Like-named read-outs stand apart in the source and are kept apart here. Bridge positions count the residues as written; N and C are the ends. Square brackets hold non-standard residues; d marks the D form. Peptide text beside a SMILES is read from it. R5 = C=CCCC[C@@](C)(N)C(=O)O

How the values were obtained:
E. coli = assay: microbe, parasite or virus in culture; format: cell-based, Escherichia coli; conditions: for MIC: read-out: Single drug treatment MIC; for TP4-3 and meropenem combined MIC: MIC of each agent in combination
P. aeruginosae = assay: microbe, parasite or virus in culture; format: cell-based, Pseudomonas aeruginosa; conditions: for TP4-3 and meropenem combined MIC: MIC of each agent in combination; for MIC: read-out: Single drug treatment MIC
E. aerogenes = assay: microbe, parasite or virus in culture; format: cell-based, Enterobacter aerogenes; conditions: for MIC: read-out: Single drug treatment MIC; for TP4-3 and meropenem combined MIC: MIC of each agent in combination
MDR A. baumannii 1702 = assay: microbe, parasite or virus in culture; format: cell-based, Acinetobacter baumannii
Protocol: (§1) The antimicrobial assay was performed according to a modified National Committee for Clinical Laboratory Standards (NCCLS) protocol ([41], [42]). Briefly, 5 × 10^5 CFU/mL bacterial cells were treated with various peptide concentrations and incubated at 37 ± 2°C for 16 to 20 h. The lowest concentration with clear wells was recorded as the MIC for each test molecule. The clear wells were further plated in Mueller-Hinton agar (MHA) plates, followed by incubation overnight at 37 ± 2°C. After plating, the lowest concentration at which no growth was observed was recorded as the MBC. For the serum sensitivity assay, the antimicrobial activity of the peptides was tested in medium containing 50% human serum ([43], [44]).

MDR A. baumannii 2962 = assay: microbe, parasite or virus in culture; format: cell-based, Acinetobacter baumannii
Protocol: as §1

MDR A. baumannii 1607 = assay: microbe, parasite or virus in culture; format: cell-based, Acinetobacter baumannii; conditions: for MBC: read-out: MBC
Protocol: as §1

MDR A. baumannii 2998 = assay: microbe, parasite or virus in culture; format: cell-based, Acinetobacter baumannii; conditions: for MBC: read-out: MBC
Protocol: as §1

MDR A. baumannii 1019 = assay: microbe, parasite or virus in culture; format: cell-based, Acinetobacter baumannii
Protocol: as §1

MDR A. baumannii 921 = assay: microbe, parasite or virus in culture; format: cell-based, Acinetobacter baumannii
Protocol: as §1

MDR A. baumannii 2982 = assay: microbe, parasite or virus in culture; format: cell-based, Acinetobacter baumannii
Protocol: as §1

MDR A. baumannii 2088 = assay: microbe, parasite or virus in culture; format: cell-based, Acinetobacter baumannii; conditions: for MBC: read-out: MBC; for MIC: read-out: MIC
Protocol: as §1

MDR A. baumannii 1033 = assay: microbe, parasite or virus in culture; format: cell-based, Acinetobacter baumannii
Protocol: as §1

MDR A. baumannii 3618 = assay: microbe, parasite or virus in culture; format: cell-based, Acinetobacter baumannii
Protocol: as §1

MDR A. baumannii 14B0091 = assay: microbe, parasite or virus in culture; format: cell-based, Acinetobacter baumannii
Protocol: as §1

MDR A. baumannii 2997 = assay: microbe, parasite or virus in culture; format: cell-based, Acinetobacter baumannii
Protocol: as §1

S enterica = assay: Checkerboard microdilution assay (FICI); format: cell-based, Salmonella enterica; conditions: for TP4-3 and meropenem combined MIC: MIC of each agent in combination, TP4-3 and M
[1] = system: CLP-induced polymicrobial sepsis in C57BL/6 female mice; assay: CLP-induced polymicrobial sepsis model; format: in vivo; conditions: for kidney (BUN, CRE) and liver function (GOT, GPT): 24 h after CLP; for survival: 7 days post-operation, i.p. 30 min after CLP, TP4-3 9 mg/kg, meropenem 10 mg/kg, combination 9 mg/kg TP4-3 and 5 mg/kg meropenem, CLP + saline 12.5%
Protocol: (i) CLP surgery. Cecal ligation and puncture surgery was performed to induce polymicrobial sepsis according to a previously described method ([37]). Female C57BL/6 mice at 6 to 8 weeks of age (weight = 18 to 22 g) were anesthetized by intraperitoneal administration of Zoletil (50 mg/kg). Then, a 1-cm incision was made at the abdomen to expose the cecum. The CLP procedure was performed with a 23-G needle. […] A sham group was subjected to abdomen incision without CLP and treated with saline by intraperitoneal injection. After the treatments, percent survival was used as a measure of test-candidate efficacy ([37]).
(ii) Estimation of bacterial load, cytokine expression, and toxicity profile after CLP and treatment. […] Blood samples were taken in collection tubes. Peritoneal fluid was collected in a sterilized 1.5-mL centrifuge tube. Organs, including the liver, lung, spleen, and kidney, were harvested, weighed, and placed in 1-mL sterile PBS for homogenization with a tissue lyzer (Tissuelyzer II, Qiagen, Dusseldorf, Germany). The homogenates, blood, and peritoneal fluid were diluted serially and plated on Mueller-Hinton broth agar plates. The plates were incubated at 37°C overnight. Each tissue was evaluated by measuring CFU/g ([37]).
To evaluate kidney and liver function, blood samples (n = 5 per group) were tested for ALT (GPT), AST (GOT), CRE, and BUN using a dry-chemistry analyzer as described above. Mouse serum was extracted to assess (n = 5 per group) expression of cytokines (Thermo Fisher Scientific, Waltham, MA) as a measure of inflammatory response ([37]).

[2] = Acinetobacter baumannii, MHB medium, read-out: MBC
[3] = Acinetobacter baumannii, MHB medium, read-out: MIC
[4] = HS, MH medium containing 50% human serum, read-out: MBC
[5] = HS, MH medium containing 50% human serum, read-out: MIC
[6] = Acinetobacter baumannii, MHB medium
[7] = HS, MH medium containing 50% human serum
[8] = 24 h, ELISA, compared to saline-treated group
[9] = 72 h compared to 24 h after treatment

C[C@@H](O)[C@H]1C(=O)N2C(C(=O)O)=C(S[C@@H]3CN[C@H](C(=O)N(C)C)C3)[C@H](C)[C@H]12 [Meropenem]
MIC (E. coli; Escherichia coli): 3.13 µM (≈ 1.2 µg/mL)
TP4-3 and meropenem combined MIC (E. coli; TP4-3 and M): 0.097 µM
TP4-3 and meropenem combined MIC (P. aeruginosae; TP4-3 and M): 0.78 µM
MIC (P. aeruginosae; Pseudomonas aeruginosa): 0.39 µM (≈ 0.15 µg/mL)
MIC (E. aerogenes; Klebsiella aerogenes): 0.39 µM (≈ 0.15 µg/mL)
TP4-3 and meropenem combined MIC (E. aerogenes; TP4-3 and M): 0.097 µM
MBC (MDR A. baumannii 1702; [2]): > 25 µM
MIC (MDR A. baumannii 1702; [3]): > 25 µM
MBC (MDR A. baumannii 1702; [4]): >25 µM
MIC (MDR A. baumannii 1702; [5]): >25 µM
MBC (MDR A. baumannii 2962; [6]): > 25 µM
MIC (MDR A. baumannii 2962; [6]): > 25 µM
MBC (MDR A. baumannii 2962; [7]): >25 µM
MIC (MDR A. baumannii 2962; [7]): >25 µM
MIC (MDR A. baumannii 1607; [6]): > 25 µM
MBC (MDR A. baumannii 1607; [6]): > 25 µM
MIC (MDR A. baumannii 1607; [7]): >25 µM
MBC (MDR A. baumannii 1607; [7]): >25 µM
MIC (MDR A. baumannii 2998; [6]): > 25 µM
MBC (MDR A. baumannii 2998; [6]): > 25 µM
MIC (MDR A. baumannii 2998; [7]): >25 µM
MBC (MDR A. baumannii 2998; [7]): >25 µM
MBC (MDR A. baumannii 1019; [6]): > 25 µM
MIC (MDR A. baumannii 1019; [6]): > 25 µM
MBC (MDR A. baumannii 1019; [7]): >25 µM
MIC (MDR A. baumannii 1019; [7]): >25 µM
MBC (MDR A. baumannii 921; [6]): > 25 µM
MIC (MDR A. baumannii 921; [6]): > 25 µM
MBC (MDR A. baumannii 921; [7]): >25 µM
MIC (MDR A. baumannii 921; [7]): >25 µM
MBC (MDR A. baumannii 2982; [6]): > 25 µM
MIC (MDR A. baumannii 2982; [6]): > 25 µM
MBC (MDR A. baumannii 2982; [7]): >25 µM
MIC (MDR A. baumannii 2982; [7]): >25 µM
MBC (MDR A. baumannii 2088; [6]): > 25 µM
MIC (MDR A. baumannii 2088; [6]): > 25 µM
MBC (MDR A. baumannii 2088; [7]): >25 µM
MIC (MDR A. baumannii 2088; [7]): >25 µM
MBC (MDR A. baumannii 1033; [2]): > 25 µM
MIC (MDR A. baumannii 1033; [3]): > 25 µM
MBC (MDR A. baumannii 1033; [4]): >25 µM
MIC (MDR A. baumannii 1033; [5]): >25 µM
MBC (MDR A. baumannii 3618; [6]): > 25 µM
MIC (MDR A. baumannii 3618; [6]): > 25 µM
MBC (MDR A. baumannii 3618; [7]): >25 µM
MIC (MDR A. baumannii 3618; [7]): >25 µM
MBC (MDR A. baumannii 14B0091; [6]): > 25 µM
MIC (MDR A. baumannii 14B0091; [6]): > 25 µM
MBC (MDR A. baumannii 14B0091; [7]): >25 µM
MIC (MDR A. baumannii 14B0091; [7]): >25 µM
MBC (MDR A. baumannii 2997; [2]): > 25 µM
MIC (MDR A. baumannii 2997; [3]): > 25 µM
MBC (MDR A. baumannii 2997; [4]): >25 µM
MIC (MDR A. baumannii 2997; [5]): >25 µM
TP4-3 and meropenem combined MIC (S enterica): 0.19 µM
MIC (S enterica; Salmonella enterica, read-out: Single drug treatment MIC): 6.25 µM
kidney (BUN, CRE) and liver function (GOT, GPT) [1]: poor liver function profiles
survival [1]: 37.5%

CC[C@H](C)[C@H](NC(=O)[C@@H](NC(=O)[C@@H](N)Cc1ccccc1)[C@@H](C)CC)C(=O)N[C@]1(C)CCCC=CCCC[C@](C)(C(=O)NCC(=O)N[C@@H](CC(C)C)C(=O)N[C@@H](Cc2ccccc2)C(=O)N[C@@H](CCCCN)C(=O)N[C@@H](CCCCN)C(=O)N[C@@H](CCCCN)C(=O)N[C@@H](C)C(=O)NCC(=O)N[C@@H](C)C(=O)N[C@]2(C)CCCC=CCCC[C@](C)(C(=O)N[C@H](C(=O)N[C@@H](CCCCN)C(=O)N[C@@H](CCCCN)C(=O)O)[C@@H](C)CC)NC(=O)[C@H](CCCCN)NC(=O)[C@H](CCCCN)NC(=O)[C@H](CCCCN)NC2=O)NC(=O)[C@H](CO)NC(=O)[C@H](CCCCN)NC(=O)[C@H](CCCCN)NC1=O [TP4-3] (H-FII[R5]KKS[R5]GLFKKKAGA[R5]KKK[R5]IKK-OH; staple 4-8, 18-22; N-terminus and C-terminus assumed)
TP4-3 and meropenem combined MIC (E. coli; TP4-3 and D): 6.25 µM
TP4-3 and meropenem combined MIC (E. coli; TP4-3 and M): 0.78 µM
MIC (E. coli): 25 µM (≈ 72.3 µg/mL)
TP4-3 and meropenem combined MIC (P. aeruginosae; TP4-3 and D): 6.25 µM
TP4-3 and meropenem combined MIC (P. aeruginosae; TP4-3 and M): 0.78 µM
MIC (P. aeruginosae): 25 µM (≈ 72.3 µg/mL)
TP4-3 and meropenem combined MIC (E. aerogenes; TP4-3 and D): 3.13 µM
TP4-3 and meropenem combined MIC (E. aerogenes; TP4-3 and M): 0.78 µM
MIC (E. aerogenes): 25 µM (≈ 72.3 µg/mL)
MBC (MDR A. baumannii 1702; MDR 1702): 3.13 to 6.25 µM
MIC (MDR A. baumannii 1702; MDR 1702): 3.13 to 6.25 µM
MBC (MDR A. baumannii 2962; MDR 2962): 12.5 µM (≈ 36.1 µg/mL)
MIC (MDR A. baumannii 2962; MDR 2962): 6.25 µM (≈ 18.1 µg/mL)
MIC (MDR A. baumannii 1607; MDR 1607): 6.25 µM (≈ 18.1 µg/mL)
MBC (MDR A. baumannii 1607; MDR 1607): 12.5 µM (≈ 36.1 µg/mL)
MBC (MDR A. baumannii 2998; MDR 2998): 12.5 µM (≈ 36.1 µg/mL)
MBC (MDR A. baumannii 1019; MDR 1019): 12.5 µM (≈ 36.1 µg/mL)
MIC (MDR A. baumannii 1019; MDR 1019): 12.5 µM (≈ 36.1 µg/mL)
MBC (MDR A. baumannii 921; MDR 921): 6.25 µM (≈ 18.1 µg/mL)
MIC (MDR A. baumannii 921; MDR 921): 6.25 µM (≈ 18.1 µg/mL)
MBC (MDR A. baumannii 2982; MDR 2982): 6.25 µM (≈ 18.1 µg/mL)
MIC (MDR A. baumannii 2982; MDR 2982): 6.25 µM (≈ 18.1 µg/mL)
MBC (MDR A. baumannii 2088; MDR 2088): 6.25 µM (≈ 18.1 µg/mL)
MBC (MDR A. baumannii 1033; MDR 1033): 6.25 to 12.5 µM
MIC (MDR A. baumannii 1033; MDR 1033): 6.25 to 12.5 µM
MBC (MDR A. baumannii 3618; MDR 3618): 12.5 µM (≈ 36.1 µg/mL)
MBC (MDR A. baumannii 14B0091; MDR 14B0091): 3.13 µM (≈ 9.05 µg/mL)
MIC (MDR A. baumannii 14B0091; MDR 14B0091): 3.13 µM (≈ 9.05 µg/mL)
MBC (MDR A. baumannii 2997; MDR 2997): 3.13 to 6.25 µM
MIC (MDR A. baumannii 2997; MDR 2997): 3.13 to 6.25 µM
TP4-3 and meropenem combined MIC (S enterica): 0.39 µM
serum IL-6 level [1, 8]: lower levels
serum IL-10 level [1, 8]: higher level
serum IL-12 level [1, 8]: no difference
serum IL-18 level [1, 8]: lower levels
serum MCP-1 level [1, 8]: lower levels
serum TNF-α level [1, 8]: lower levels
kidney (BUN, CRE) and liver function (GOT, GPT) [1]: significantly improved
bacterial burden in peritoneal lavage fluid [1, 9]: no significant difference
decrease of bacterial burden, blood [1, 9]: 54%
decrease of bacterial burden, kidney [1, 9]: 51%
decrease of bacterial burden, liver [1, 9]: 61%
decrease of bacterial burden, lung [1, 9]: 51%
decrease of bacterial burden, spleen [1, 9]: 55%
bacterial burdens in the blood, lung, and liver ([1]; 72 h post-treatment, compared to CLP + saline): lower bacterial burdens
survival [1]: 87.5%
